Test results taken from paper PMC10620963, “Two-carbon tethered artemisinin–isatin hybrids: design, synthesis, anti-breast cancer potential, and in silico study” (Frontiers in Molecular Biosciences, 2023).

Key:
[1] = tested on: MCF-7 breast cancer cell line; test: MTT antiproliferative assay, MCF-7; assay type: cell-based, human; conditions: for IC50: Homo sapiens, MCF7, MTT, 24 h treatment, mean ± S.D., n = 3
Method: (§1) The antiproliferative activity and cytotoxicity of ART–isatin hybrids 4a–k against MCF-7 (CL-0149, purchased from Procell), MDA-MB-231 (CL-0150A, purchased from Procell), and MDA-MB-231/ADR (AC337895, purchased from CASMART) breast cancer cell lines, as well as MCF-10A (CL-0525, purchased from Procell), were assessed by the 3-(4,5-dimethylthiazol-2-yl)-2,5-diphenyltetrazolium bromide (MTT) assay. ART, DHA, and Adriamycin (ADR) were used as positive controls. The selectivity index (SI: IC50(MCF-10A)/IC50(MCF-7)) and resistance index (RI: IC50(MDA-MB-231/ADR)/IC50(MDA-MB-231)) are presented in Table 3.
(§2) MCF-7, MDA-MB-231 and MDA-MB-231/ADR breast cancer cells (2×10^3) were plated in each well of a 96-well plate and were allowed to adhere and spread for 24 h. Cells were treated with a range of different concentrations of ART-isatin hybrids 4a-k (1, 5, 10, 20, 50, 100 µM) and reference drugs artemisinin, dihydroartemisinin, and adriamycin (1, 5, 10, 20, 50, 100 µM) and were cultured for 24 h at 37 °C. 3-(4,5-dimethyl-2-thiazolyl)-2,5-diphenyltetrazolium bromide (MTT) solution (10 µL) was added to each well, and the cultures were incubated for an additional 4 h. A further 100 µL of […] was added and incubation continued overnight. The absorbance was read at 540 nm in EnSpire, multimode reader and IC50 concentration was calculated and indicated as means SD of three in-dependent experiments. The percentage relative cell viability was determined according to the following formula: Percentage cell viability = A at 570 nm of treated samples/A at 570 nm of untreated samples × 100.
(§3) The statistical analysis was performed using Excel © and IC50 values were estimated using GraphpadPrism5 software (Hearne Scientific Software). The experiments were performed in duplicate and the statistical significance was calculated using the student’s t-test. A p-value of less than 0.05 was used to estimate the significance of the observations. A Z-factor was calculated for each 96-well plate and assays having Z-factor above 0.05 were included in the statistical analysis.

[2] = tested on: MCF-7, MDA-MB-231, and MDA-MB-231/ADR breast cancer cell lines; test: MTT antiproliferative assay, span over the three breast cancer cell lines; assay type: cell-based; conditions: Homo sapiens; span over MCF-7, MDA-MB-231, MDA-MB-231/ADR; read-out: IC50 range against the three tested breast cancer cell lines
Method: as §1
MCF-7, MDA-MB-231 and MDA-MB-231/ADR breast cancer cells (2×10^3) were plated in each well of a 96-well plate and were allowed to adhere and spread for 24 h. […] The absorbance was read at 540 nm in EnSpire, multimode reader and IC50 concentration was calculated and indicated as means SD of three in-dependent experiments. The percentage relative cell viability was determined according to the following formula: Percentage cell viability = A at 570 nm of treated samples/A at 570 nm of untreated samples × 100.
The statistical analysis was performed using Excel © and IC50 values were estimated using GraphpadPrism5 software (Hearne Scientific Software). The experiments were performed in duplicate and the statistical significance was calculated using the student’s t-test. […]

[3] = tested on: MDA-MB-231 breast cancer cell line; test: MTT antiproliferative assay, MDA-MB-231; assay type: cell-based; conditions: Homo sapiens, 24 h treatment, mean ± S.D., n = 3
Method: as §1, §2, §3

[4] = MTT cytotoxicity assay, MCF-10A; assay type: cell-based; conditions: human, MCF-10A normal breast cells, 72 h exposure
Method: as §1
The cytotoxicity (CC50) of ART-isatin hybrids 4a-k and reference drugs artemisinin, dihydroartemisinin, and adriamycin were examined by the MTT assay in MCF-10A cells. The compounds were dissolved in DMSO with different concentrations. The MCF-10A cells were maintained in culture medium at 37 °C under 5% CO2 atmosphere. Cells were seeded in 96-well plates (1×10^4 cell per well) and allowed to recover for 24 h. After 72 h of exposure, cells were harvested, and cell viability was assessed by MTT assay.
as §3

[5] = tested on: MDA-MB-231/ADR (Adriamycin-resistant MDA-MB-231 cell line); test: MTT antiproliferative assay, MDA-MB-231/ADR; assay type: cell-based; conditions: Homo sapiens, 24 h treatment, mean ± S.D., n = 3
Method: as §1, §2, §3

Compound | SI, selectivity index, IC50(MCF-10A)/IC50(MCF-7) [1] | IC50 [1] [µM] | IC50 [2] [µM] | IC50 [3] [µM] | IC50 at 72 h [4] [µM] | IC50 [5] [µM]
C[C@@H]1CC[C@H]2[C@@H](C)C(OCCN3C(=O)C(=O)c4ccccc43)O[C@@H]3O[C@@]4(C)CC[C@@H]1[C@]32OO4 (stereo partly drawn) [Hybrid 4a, 1-(2-(((3R,5aS,6R,8aS,9R,12R,12aR)-3,6,9-trimethyldecahydro-12H-3,12-epoxy[1,2]dioxepino[4,3-i]isochromen-10-yl)oxy)ethyl)indoline-2,3-dione] | >7.9 | 12.6 ± 2.1 | 2.49 to 12.6 | 3.83 ± 0.1 | > 100 | 2.49 ± 0.1
CCON=C1C(=O)N(CCOC2O[C@@H]3O[C@@]4(C)CC[C@H]5[C@H](C)CC[C@@H]([C@H]2C)[C@@]35OO4)c2ccc(F)cc21 (stereo partly drawn) [Hybrid 4h, 3-(ethoxyimino)-5-fluoro-1-(2-(((3R,5aS,6R,8aS,9R,12R,12aR)-3,6,9-trimethyldecahydro-12H-3,12-epoxy[1,2]dioxepino[4,3-i]isochromen-10-yl)oxy)ethyl)indolin-2-one] | >1.4 | 68.3 ± 5.2 |  | 46.5 ± 3.9 | > 100 | 59.9 ± 4.4
C[C@@H]1CC[C@H]2[C@@H](C)C(=O)O[C@@H]3O[C@@]4(C)CC[C@@H]1[C@]32OO4 [ART, artemisinin] | >1.1 | 87.6 ± 6.6 |  | 72.4 ± 5.3 | > 100 | > 100
COc1ccc2c(c1)/C(=N\OCc1ccccc1)C(=O)N2CCOC1O[C@@H]2O[C@@]3(C)CC[C@H]4[C@H](C)CC[C@@H]([C@H]1C)[C@@]24OO3 (stereo partly drawn) [Hybrid 4k, (E)-3-((benzyloxy)imino)-5-methoxy-1-(2-(((3R,5aS,6R,8aS,9R,12R,12aR)-3,6,9-trimethyldecahydro-12H-3,12-epoxy[1,2]dioxepino[4,3-i]isochromen-10-yl)oxy)ethyl)indolin-2-one] |  | > 100 |  | > 100 | > 100 | > 100
CO/N=C1/C(=O)N(CCOC2O[C@@H]3O[C@@]4(C)CC[C@H]5[C@H](C)CC[C@@H]([C@H]2C)[C@@]35OO4)c2ccc(F)cc21 (stereo partly drawn) [Hybrid 4e, (E)-5-fluoro-3-(methoxyimino)-1-(2-(((3R,5aS,6R,8aS,9R,12R,12aR)-3,6,9-trimethyldecahydro-12H-3,12-epoxy[1,2]dioxepino[4,3-i]isochromen-10-yl)oxy)ethyl)indolin-2-one] | >1.3 | 73.3 ± 5.6 |  | 49.6 ± 3.8 | > 100 | 64.7 ± 4.9
C[C@H]1[C@@H](O)O[C@@H]2O[C@@]3(C)CC[C@H]4[C@H](C)CC[C@@H]1[C@@]24OO3 [DHA, dihydroartemisinin, reference compound] | >1.3 | 73.2 ± 5.9 | 69.6 to 89.8 | 69.6 ± 4.7 | > 100 | 82.8 ± 6.8
CON=C1C(=O)N(CCOC2O[C@@H]3O[C@@]4(C)CC[C@H]5[C@H](C)CC[C@@H]([C@H]2C)[C@@]35OO4)c2ccc(OC)cc21 (stereo partly drawn) [Hybrid 4f, 5-methoxy-3-(methoxyimino)-1-(2-(((3R,5aS,6R,8aS,9R,12R,12aR)-3,6,9-trimethyldecahydro-12H-3,12-epoxy[1,2]dioxepino[4,3-i]isochromen-10-yl)oxy)ethyl)indolin-2-one] | >2.6 | 37.9 ± 3.3 |  | 20.4 ± 1.7 | > 100 | 33.8 ± 3
COc1ccc2c(c1)C(=O)C(=O)N2CCOC1O[C@@H]2O[C@@]3(C)CC[C@H]4[C@H](C)CC[C@@H]([C@H]1C)[C@@]24OO3 (stereo partly drawn) [Hybrid 4c, 5-methoxy-1-(2-(((3R,5aS,6R,8aS,9R,12R,12aR)-3,6,9-trimethyldecahydro-12H-3,12-epoxy[1,2]dioxepino[4,3-i]isochromen-10-yl)oxy)ethyl)indoline-2,3-dione] | >2.9 | 33.8 ± 3.2 |  | 27 ± 2.2 | > 100 | 25.1 ± 1.9
COc1cccc2c1C(=O)c1c(O)c3c(c(O)c1C2=O)C[C@@](O)(C(=O)CO)C[C@@H]3O[C@H]1C[C@H](N)[C@H](O)[C@H](C)O1 [ADR, Adriamycin, reference compound] | 3.6 | 18.9 ± 1.2 |  | 4.46 ± 0.1 | 68.8 | > 100
CON=C1C(=O)N(CCOC2O[C@@H]3O[C@@]4(C)CC[C@H]5[C@H](C)CC[C@@H]([C@H]2C)[C@@]35OO4)c2ccccc21 (stereo partly drawn) [Hybrid 4d, 3-(methoxyimino)-1-(2-(((3R,5aS,6R,8aS,9R,12R,12aR)-3,6,9-trimethyldecahydro-12H-3,12-epoxy[1,2]dioxepino[4,3-i]isochromen-10-yl)oxy)ethyl)indolin-2-one] | >3.5 | 28.5 ± 2.3 |  | 16.2 ± 1.8 | > 100 | 19.7 ± 1.2
CCON=C1C(=O)N(CCOC2O[C@@H]3O[C@@]4(C)CC[C@H]5[C@H](C)CC[C@@H]([C@H]2C)[C@@]35OO4)c2ccccc21 (stereo partly drawn) [Hybrid 4g, 3-(ethoxyimino)-1-(2-(((3R,5aS,6R,8aS,9R,12R,12aR)-3,6,9-trimethyldecahydro-12H-3,12-epoxy[1,2]dioxepino[4,3-i]isochromen-10-yl)oxy)ethyl)indolin-2-one] | >2.0 | 48.2 ± 3.7 |  | 37.6 ± 2.4 | > 100 | 28.4 ± 2.1
CCON=C1C(=O)N(CCOC2O[C@@H]3O[C@@]4(C)CC[C@H]5[C@H](C)CC[C@@H]([C@H]2C)[C@@]35OO4)c2ccc(OC)cc21 (stereo partly drawn) [Hybrid 4i, 3-(ethoxyimino)-5-methoxy-1-(2-(((3R,5aS,6R,8aS,9R,12R,12aR)-3,6,9-trimethyldecahydro-12H-3,12-epoxy[1,2]dioxepino[4,3-i]isochromen-10-yl)oxy)ethyl)indolin-2-one] | >1.4 | 70.8 ± 5.9 |  | 50.1 ± 4.2 | > 100 | 52.2 ± 3.6
C[C@@H]1CC[C@H]2[C@@H](C)C(OCCN3C(=O)C(=NOCc4ccccc4)c4cc(F)ccc43)O[C@@H]3O[C@@]4(C)CC[C@@H]1[C@]32OO4 (stereo partly drawn) [Hybrid 4j, 3-((benzyloxy)imino)-5-fluoro-1-(2-(((3R,5aS,6R,8aS,9R,12R,12aR)-3,6,9-trimethyldecahydro-12H-3,12-epoxy[1,2]dioxepino[4,3-i]isochromen-10-yl)oxy)ethyl)indolin-2-one] |  | > 100 |  | > 100 | > 100 | > 100
C[C@@H]1CC[C@H]2[C@@H](C)C(OCCN3C(=O)C(=O)c4cc(F)ccc43)O[C@@H]3O[C@@]4(C)CC[C@@H]1[C@]32OO4 (stereo partly drawn) [Hybrid 4b, 5-fluoro-1-(2-(((3R,5aS,6R,8aS,9R,12R,12aR)-3,6,9-trimethyldecahydro-12H-3,12-epoxy[1,2]dioxepino[4,3-i]isochromen-10-yl)oxy)ethyl)indoline-2,3-dione] | >3.7 | 26.7 ± 2.4 |  | 18.6 ± 1.5 | > 100 | 21.4 ± 3.1
